Consider twelve compounds from patent US6562854B2, “Compositions comprising a substituted benzimidazole useful for treating immunomediated inflammatory disorders” (Axys Pharmaceuticals, Inc., priority 1994, dated 2003).

The subject of assay [1] is tryptase purified from human lung or skin tissue preparations or human mast cell line (HMC-1). The experiment in a line: In vitro Tryptase Inhibition Assay. It counts as biochemical. The conditions noted are these: substrate tosyl-Gly-Pro-Lys-p-nitroanilide; Tris-HCl pH 8.2; zinc chloride 150 μM; 1 hour preincubation at room temperature; read-out: Ki (apparent inhibition constant, tryptase inhibitory activity). On the procedure: Tryptase solution ([…]) was prepared by dissolving tryptase purified from human lung or skin tissue preparations or human mast cell line (HMC-1) or obtained from commercial sources, e.g., ICN Biomeidals, Irvine, Calif., Athens Research & Technology, Athens, Ga., etc., in a solvent mixture comprising: 10 mM 2-N-morpholinoethane sulfonic acid, 2 mM CaCl2, 20% glycerol and 50 µg/mL heparin. Substrate solution containing 2 mM synthetic tripeptide (tosyl-Gly-Pro-Lys-p-nitroanilide) was obtained from Sigma. Test Compound solutions were prepared by diluting a stock solution (1 mg of test Compound in 200 μL of dimethylsulfoxide (DMSO)) by ten-fold into assay buffer (comprising: Tris-HCl (pH 8.2), 50 mM; NaCl, 100 MM; 0.05% polyoxyethylenesorbitan monolaurate (Tween-20®); and zinc chloride, 150 μM) and then making seven additional three-fold dilutions into 10% DMSO in assay buffer.
Aliquots (50 μL) from each of the eight dilutions of test compound solution were added to separate wells in a 96-well U-bottom microtiter plate. Typtase solution (25 μL) was added to each well and the solutions were mixed 1 hour at room temperature. Substrate solution (25 μL) was added to initiate the enzymatic reaction and the microtiter plates were immediately transferred to a UVIMAX Kinetic Microplate Reader (Molecular Devices). The hydrolysis of the chromogenic substrate was followed spectrophotometrically at 405 nanometers for five minutes. Initial velocity measurements were calculated from the progress curves by kinetic analysis program (BatchKi; Petr Kuzmic, University of Wisconsin, Madison, Wis.). Apparent inhibition constants (K) were calculated from the enzyme progress curves using standard mathematical models.

The subject of a further assay is antigen challenged sheep. The assay can be described thus: Sheep Model of Asthma (allergic sheep, antigen challenge). The assay is classed as in vivo. The source says: The allergic sheep model of asthma was employed for the in vivo evaluation of the compounds of the invention as antiasthmatics. These methods have been published previously (see Abraham et al. (1983) Am. Rev. Respir. Dis. 128:839-844; Allegra et al. (1983) J. Appl. Physiol. 55:726-730; Russi et al. (1985) J. Appl. Physiol. 59:1416-1422; Soler et al. ((1989) J. Appl. Physiol. 67:406-413. Each sheep serves as its own control. Body weights for these animals ranged from 20-50 kilograms.
In these studies, 1 mg of Compound 13 was dissolved in 3 mL distilled water, and the total solution delivered as an aerosol 0.5 hours before, 4 hours after, and 24 hours after antigen challenge (total dose=1 mg; n=3).
Twenty-four hours after antigen challenge in both the control and drug trial, the sheep developed airway hyper-responsiveness. Airway hyper-responsiveness is expressed as PC400, the concentration of carbachol that causes a 400% increase in SRL; therefore, a decrease in PC400 indicates hyper-responsiveness. […] The number of breath units fell to 7 for those animals in the control group.

As for `Cn1c(Cc2nc3cc(CN)ccc3[nH]2)nc2cc(C(=O)NCCCN)ccc21` [Compound 12, 2-(5-Aminomethyl-1H-benzoimidazol-2-ylmethyl)-N-(3-aminopropyl)-1-methyl-1H-benzoimidazole-5-carboxamide], the Ki in assay [1] is 29000 nM.

For “2-(5-Guanidino-1H-benzoimidazol-2-ylmethyl)-N-(2-naphthalen-1-ylethyl)-3-methyl-3H-benzoimidazole-5-carboxyamide [Compound 28]”, in assay [1], the Ki was 0.07 nM.

In the case of `Cn1c(Cc2nc3c([nH]2)CCC(CN)C3)nc2ccc(C(=O)NCCc3cccc4ccccc34)cc21` (centres unmarked) [Compound 112, 2-(5-aminomethyl-4,5,6,7-tetrahydro-1H-benzoimidazol-2-ylmethyl)-3-methyl-N-(2-naphth-1-ylethyl)-3H-benzoimidazole-5-carboxamide], the Ki in assay [1] came out at 0.05 nM.

As for `CCOC(=O)c1ccccc1OCCNC(=O)c1ccc2nc(C(C)c3nc4c([nH]3)CCN(C(C)=N)C4)n(C)c2c1` (centres unmarked) [Compound 182, ethyl 2-[2-(2-{1-[5-(1-iminoethyl)-4,5,6,7-tetrahydro-1H-imidazo[4,5-c]pyridin-2-yl]ethyl}-3-methyl-3H-benzoimidazol-5-ylcarbonylamino)ethoxy]benzoate], the Ki in assay [1] is 4 nM.

In the case of `CCOC(=O)c1ccccc1OCCNC(=O)c1ccc2nc(C(C)c3nc4c(F)cc(F)c(F)c4[nH]3)n(C)c2c1` (centres unmarked) [Compound 75, ethyl 2-(2-{2-[1-(4,6,7-trifluoro-1H-benzoimidazol-2-yl)ethyl]-3-methyl-3H-benzoimidazol-5-carbonylamino}ethoxy}benzoate], the Ki in assay [1] was determined as 30 nM.

Take `CC(c1nc2cc(NC(=N)N)ccc2[nH]1)c1nc2ccc(C(=O)NCCOc3ccccc3C(N)=O)cc2n1C` (centres unmarked) [Compound 249, 2-[1-(5-guanidino-1H-benzoimidazol-2-yl)ethyl]-N-[2-(2-carbamoylphenoxy)ethyl]-3-methyl-3H-benzoimidazole-5-carboxamide]: the Ki in assay [1] came out at 0.7 nM.

For `CC(=N)N1CCc2[nH]c(C(=O)c3nc4ccc(C(=O)NCCc5cccc6ccccc56)cc4n3C)nc2C1` [Compound 116, 2-[5-(1-iminoethyl)-4,5,6,7-tetrahydro-1H-imidazo[4,5-c]pyridin-2-ylcarbonyl]-3-methyl-N-(2-naphth-1-ylethyl)-3H-benzoimidazole-5-carboxamide], the Ki in assay [1] is 6 nM.

As for `Cn1c(Cc2nc3cc(CN)ccc3[nH]2)nc2ccc(C(=O)NCCc3cccc4ccccc34)cc21` [Compound 102, 2-(5-aminomethyl-1H-benzoimidazol-2-ylmethyl)-3-methyl-N-(2-naphth-1-ylethyl)-3H-benzoimidazole-5-carboxamide], the Ki in assay [1] was 0.07 nM.

`N=C(N)Nc1ccc2[nH]c(Cc3nc4ccc(C(=O)NCCc5cccc6ccccc56)cc4n3CC(O)CO)nc2c1` (centres unmarked) [Compound 132, 2-(5-guanidino-1H-benzoimidazol-2-ylmethyl)-3-(2,3-dihydroxy)propyl-N-(2-naphth-1-ylethyl)-3H-benzoimidazole-5-carboxamide]: in assay [1], the Ki turned out to be 0.02 nM.

Consider `CCOC(=O)c1ccccc1OCCNC(=O)c1ccc2nc(C(C)c3nc4cc(OC(=O)OC)ccc4n3C(=O)C(C)C)n(C)c2c1` (centres unmarked) [Compound 84, Ethyl 2-(2-{2-[1-(1-isobutyryl-5-methoxycarbonyloxy-1H-benzoimidazol-2-yl)ethyl]-3-methyl-3H-benzoimidazol-5-ylcarbonylamino}ethoxy)benzoate], for which the Ki in assay [1] amounted to 2600 nM.

Turning to `NCc1ccc2[nH]c(Cc3nc4cc(C(=O)NCCc5cccc6ccccc56)ccc4[nH]3)nc2c1` [Compound 13], the “PC400 (airway hyper-responsiveness; concentration of carbachol that causes a 400% increase in SRL)” value in the assay with antigen challenged sheep (24 hours after antigen challenge, 1 mg aerosol 0.5 hours before, 4 hours after and 24 hours after challenge, n=3, baseline 15, control group fell to 7) was around 15 breath units. Moreover, the airway function entry in the assay with antigen challenged sheep (antigen challenged sheep, aerosol treatment) was “significant improvement in airway function”. Moreover, in the assay on antigen challenged sheep (antigen challenged sheep, aerosol, 24 hours after challenge), the “onset of airway hyper-responsiveness” value is reported as “block the onset of hyper-responsiveness”.

In the case of `Cn1c(Cc2nc3c([nH]2)CCN(C=N)C3)nc2ccc(C(=O)NCCc3cccc4ccccc34)cc21` [Compound 117, 2-(5-iminomethyl-4,5,6,7-tetrahydro-1H-imidazo[4,5-c]pyridin-2-ylmethyl)-3-methyl-N-(2-naphth-1-ylethyl)-3H-benzoimidazole-5-carboxamide], the Ki in assay [1] was 8 nM.
